# Like-named read-outs stand apart in the source and are kept apart here.
# Assays:
# Format in all cases: in vivo
# [1] = test system: Yellow Fever Mosquito (Aedes aegypti, AEDSAE); experiment: Bioassay on Yellow Fever Mosquito (YFM), 96-well plate larval assay; conditions: for YFM rating: Yellow Fever Mosquito, 96-well plate larval assay; for YFM (Biological Results, rating): Species YFM (Yellow Fever Mosquito)
# How it was run: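 Compound stocks at 4000 ppm in DMSO were diluted with 90:10 water/acetone, and 15 μL aliquots were dispensed into six replicate plates. About 1-day-old larvae in liver-powder water were added per well. Plates were covered and held at room temperature for 3 days before each well was scored for mortality.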
# [2] = test system: Beet Armyworm (Spodoptera exigua, LAPHEG); experiment: Bioassay on Beet Armyworm (BAW), 128-well diet tray assay
# How it was run: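 Second-instar larvae, one to five per well, placed on artificial diet surface-treated with 50 μg/cm^2 compound applied in 90:10 acetone-water and dried. Held 5–7 days at 25° C., 14:10 light-dark. Percent mortality recorded per well and averaged over eight wells.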
# [3] = test system: Cabbage Looper (Trichoplusia ni, TRIPNI); experiment: Bioassay on Cabbage Looper (CL), 128-well diet tray assay; conditions: Trichoplusia ni
# How it was run: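 Using eight wells per molecule, artificial diet was dosed at 50 μg/cm^2 with compound in 90:10 acetone-water and dried before one to five second-instar larvae were added per well. Covered vented trays were kept at 25° C. with 14:10 light-dark for five to seven days, then per-well percent mortality was recorded and averaged.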
# [4] = Beet Armyworm, 128-well diet tray assay, read-out: BAW rating
# [5] = Cabbage Looper, 128-well diet tray assay, read-out: CL rating
# [6] = Species BAW (Beet Armyworm), read-out: BAW (Biological Results, rating)
# [7] = Species CL (Cabbage Looper), read-out: CL (Biological Results, rating)
Compound,YFM rating [1],"pest or weed control at 50 µg/cm2 [2, 4]","pest or weed control at 50 µg/cm2 [3, 5]","YFM (Biological Results, rating) [1]","pest or weed control at 50 µg/cm2 [2, 6]","pest or weed control at 50 µg/cm2 [3, 7]"
"O=C(Nc1nc(-c2cccs2)cs1)c1cc(NC(=O)[C@H]2[C@H](c3cc(Cl)cc(Cl)c3)C2(Cl)Cl)ccc1Cl (relative stereo) [PF135, trans-2-Chloro-5-(2,2-dichloro-3-(3,5-dichlorophenyl)cyclopropane-1-carboxamido)-N-(4-(thiophen-2-yl)thiazol-2-yl)benzamide]",A (80-100),50 to 100%,50 to 100%,–,–,–
"O=C(Nc1c[nH]c(=O)[nH]c1=O)c1cc(NC(=O)[C@H]2[C@H](c3cc(Cl)cc(Cl)c3)C2(Cl)Cl)ccc1Cl (relative stereo) [PF139, trans-2-Chloro-5-(2,2-dichloro-3-(3,5-dichlorophenyl)cyclopropane-1-carboxamido)-N-(2,4-dioxo-1,2,3,4-tetrahydropyrimidin-5-yl)benzamide]",B (More than 0-Less than 80),50 to 100%,50 to 100%,–,–,–
"O=C(Nc1cc(Cl)ccn1)c1cc(NC(=O)[C@H]2[C@H](c3cc(Cl)cc(Cl)c3)C2(Cl)Cl)ccc1Cl (relative stereo) [PF140, trans-2-Chloro-N-(4-chloropyridin-2-yl)-5-(2,2-dichloro-3-(3,5-dichlorophenyl)cyclopropane-1-carboxamido)benzamide]",A (80-100),50 to 100%,50 to 100%,–,–,–
"O=C(Nc1ccc(Cl)cn1)c1cc(NC(=O)[C@H]2[C@H](c3cc(Cl)cc(Cl)c3)C2(Cl)Cl)ccc1Cl (relative stereo) [PF141, trans-2-Chloro-N-(5-chloropyridin-2-yl)-5-(2,2-dichloro-3-(3,5-dichlorophenyl)cyclopropane-1-carboxamido)benzamide]",B (More than 0-Less than 80),50 to 100%,50 to 100%,–,–,–
"N#Cc1ccc(NC(=O)c2cc(NC(=O)[C@H]3[C@H](c4cc(Cl)cc(Cl)c4)C3(Cl)Cl)ccc2Cl)nc1 (relative stereo) [PF143, trans-2-Chloro-N-(5-cyanopyridin-2-yl)-5-(2,2-dichloro-3-(3,5-dichlorophenyl)cyclopropane-1-carboxamido)benzamide]",A (80-100),50 to 100%,50 to 100%,–,–,–
"CC(=O)Nc1ccc(NC(=O)c2cc(NC(=O)[C@H]3[C@H](c4cc(Cl)cc(Cl)c4)C3(Cl)Cl)ccc2Cl)c(C)c1 (relative stereo) [PF158, trans-N-(4-Acetamido-2-methylphenyl)-2-chloro-5-(2,2-dichloro-3-(3,5-dichlorophenyl)cyclopropane-1-carboxamido)benzamide]",A (80-100),50 to 100%,50 to 100%,–,–,–
"COCC1(C(=O)Nc2ccc(NC(=O)c3cc(NC(=O)[C@H]4[C@H](c5cc(Cl)cc(Cl)c5)C4(Cl)Cl)ccc3Cl)cc2)CC1 (relative stereo) [PF161, trans-2-Chloro-5-(2,2-dichloro-3-(3,5-dichlorophenyl)cyclopropane-1-carboxamido)-N-(4-(1-(methoxymethyl)cyclopropane-1-carboxamido)phenyl)benzamide]",A (80-100),50 to 100%,50 to 100%,–,–,–
"O=C(CC1CC1)Nc1ccc(NC(=O)c2cc(NC(=O)[C@H]3[C@H](c4cc(Cl)cc(Cl)c4)C3(Cl)Cl)ccc2Cl)cc1 (relative stereo) [PF163, trans-2-Chloro-N-(4-(2-cyclopropylacetamido)phenyl)-5-(2,2-dichloro-3-(3,5-dichlorophenyl)cyclopropane-1-carboxamido)benzamide]",A (80-100),50 to 100%,50 to 100%,–,–,–
"O=C(Nc1ccc(F)cc1)c1cc(NC(=O)[C@@H]2[C@@H](c3cc(Cl)cc(Cl)c3)C2(Cl)Cl)ccc1Cl [F166, 2-Chloro-5-((1S,3S)-2,2-dichloro-3-(3,5-dichlorophenyl)cyclopropane-1-carboxamido)-N-(4-fluorophenyl)benzamide]",–,–,–,B (More than 0-Less than 80),50 to 100%,50 to 100%
"CN(C(=O)c1cc(NC(=O)C2C(c3cc(Cl)cc(Cl)c3)C2(Cl)Br)ccc1Cl)c1ccc(F)cc1 (stereo not drawn) [F167, 5-(trans)-2-Bromo-2-chloro-3-(3,5-dichlorophenyl)cyclopropanecarboxamido)-2-chloro-N-(4-fluorophenyl)-N-methylbenzamide]",–,–,–,B (More than 0-Less than 80),50 to 100%,50 to 100%
"CN(C(=O)c1cc(NC(=O)[C@H]2[C@H](c3cc(Cl)cc(Cl)c3)C2(Cl)Cl)ccc1Cl)c1ccc(F)cc1 [F169, 2-Chloro-5-((1R,3R)-2,2-dichloro-3-(3,5-dichlorophenyl)cyclopropane-1-carboxamido)-N-(4-fluorophenyl)-N-methylbenzamide]",–,–,–,A (80-100),50 to 100%,50 to 100%
"CN(C(=O)c1cc(NC(=O)[C@@H]2[C@@H](c3cc(Cl)cc(Cl)c3)C2(Cl)Cl)ccc1Cl)c1ccc(F)cc1 [F170, 2-Chloro-5-((1S,3S)-2,2-dichloro-3-(3,5-dichlorophenyl)cyclopropane-1-carboxamido)-N-(4-fluorophenyl)-N-methylbenzamide]",–,–,–,A (80-100),50 to 100%,50 to 100%
"O=C(Nc1cc2[nH]ccc2cc1Br)c1cc(NC(=O)C2C(c3cc(Cl)cc(Cl)c3)C2(Cl)Cl)ccc1Cl (stereo not drawn) [F172, N-(5-Bromo-1H-indol-6-yl)-2-chloro-5-(trans)-2,2-dichloro-3-(3,5-dichlorophenyl)cyclopropane-1-carboxamido)benzamide]",–,–,–,B (More than 0-Less than 80),50 to 100%,50 to 100%
"O=C(Nc1cc(F)c2cc[nH]c2c1)c1cc(NC(=O)C2C(c3cc(Cl)cc(Cl)c3)C2(Cl)Cl)ccc1Cl (stereo not drawn) [F173, 2-Chloro-5-(trans)-2,2-dichloro-3-(3,5-dichlorophenyl)cyclopropane-1-carboxamido)-N-(4-fluoro-1H-indol-6-yl)benzamide]",–,–,–,B (More than 0-Less than 80),50 to 100%,50 to 100%
"O=C(Nc1ccc2cc[nH]c2n1)c1cc(NC(=O)C2C(c3cc(Cl)cc(Cl)c3)C2(Cl)Cl)ccc1Cl (stereo not drawn) [F178, 2-Chloro-5-(trans)-2,2-dichloro-3-(3,5-dichlorophenyl)cyclopropane-1-carboxamido)-N-(1H-pyrrolo[2,3-b]pyridin-6-yl)benzamide]",–,–,–,B (More than 0-Less than 80),50 to 100%,50 to 100%
"O=C(Nc1ccc(F)cc1F)c1cc(NC(=O)[C@H]2[C@H](c3cc(Cl)cc(Cl)c3)C2(Cl)Cl)ccc1Cl [F185, 2-Chloro-5-((1R,3R)-2,2-dichloro-3-(3,5-dichlorophenyl)cyclopropane-1-carboxamido)-N-(2,4-difluorophenyl)benzamide]",–,–,–,B (More than 0-Less than 80),50 to 100%,50 to 100%
"O=C(Nc1ccc(F)cc1F)c1cccc(NC(=O)C2C(c3cc(Cl)cc(Cl)c3)C2(Cl)Cl)c1 (stereo not drawn) [F186, 3-(trans)-2,2-Dichloro-3-(3,5-dichlorophenyl)cyclopropane-1-carboxamido)-N-(2,4-difluorophenyl)benzamide]",–,–,–,B (More than 0-Less than 80),50 to 100%,50 to 100%
"O=C(Nc1ccc(F)cc1F)c1cc(NC(=O)C2C(c3cc(Cl)cc(Cl)c3)C2(Cl)Br)ccc1Cl (stereo not drawn) [F187, 5-(trans)-2-Bromo-2-chloro-3-(3,5-dichlorophenyl)cyclopropane-1-carboxamido)-2-chloro-N-(2,4-difluorophenyl)benzamide]",–,–,–,A (80-100),50 to 100%,50 to 100%
"N#Cc1cc(Cl)cc(C2C(C(=O)Nc3ccc(Cl)c(C(=O)Nc4ccc(F)cc4F)c3)C2(Cl)Cl)c1 (stereo not drawn) [F188, 2-Chloro-5-(trans)-2,2-dichloro-3-(3-chloro-5-cyanophenyl)cyclopropane-1-carboxamido)-N-(2,4-difluorophenyl)benzamide]",–,–,–,B (More than 0-Less than 80),50 to 100%,50 to 100%
"O=C(Nc1ccc(F)cc1)c1cc(NC(=O)[C@@H]2[C@@H](c3ccc(Cl)c(Cl)c3)C2(Cl)Cl)ccc1Cl [F208, 2-Chloro-5-((1S,3S)-2,2-dichloro-3-(3,4-dichlorophenyl)cyclopropane-1-carboxamido)-N-(4-fluorophenyl)benzamide]",–,–,–,A (80-100),50 to 100%,50 to 100%
"O=C(Nc1ccc(F)cc1)c1cc(NC(=O)[C@H]2[C@H](c3ccc(Cl)c(Cl)c3)C2(Cl)Cl)ccc1Cl [F209, 2-Chloro-5-((1R,3R)-2,2-dichloro-3-(3,4-dichlorophenyl)cyclopropane-1-carboxamido)-N-(4-fluorophenyl)benzamide]",–,–,–,A (80-100),50 to 100%,50 to 100%
